Reference: ChEMBL document CHEMBL1201862, “PubChem BioAssay data set” (2004)
The source made the active and inactive calls. Cut-off read from the data, not from the text of the source, for most assays here: actives have a measured EC50 and inactives only a lower limit.

Experiments:
[1] = NIH-3T3 fibroblast cytotoxicity, dose response, cytotoxicity control, cell-based, fluorescence, Alamar Blue, secondary assay (AID 2327); format: functional;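 note: NIH-3T3 mouse fibroblasts cultured with fluconazole at 8 µg/mL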
[2] = luciferase reporter signal suppression in cells – H4 neuroglioma cells, luminescence, dose response (AID 1990); format: functional, cell-based
[3] = system: BJ; assay: BJ-TERT fibroblast viability loss – cell-based, RAS-independent, luminescence, dose response (AID 1933); format: functional; settings: Homo sapiens
[4] = Luminescence Cell-Based Dose Response HTS to Identify Inhibitors of 5'UTR Stem-Loop Driven Prion Protein mRNA Translation in H4 Neuroglioblastoma Cells. [Related pubchem assays: 1827 (Project Summary), 1813 (Primary HTS)]; format: functional
[5] = alpha-synuclein stem-loop luciferase translation blockers – H4 neuroglioma cells, luminescence, confirmation (AID 1988); format: functional, cell-based
[6] = system: BJ; assay: cells; format: functional, cell-based; settings: Homo sapiens
[7] = fluconazole-exposed Candida albicans growth modulators – fluorescence, retest, confirmation (AID 2467); format: functional, cell-based
[8] = system: BJ; assay: BJ-TERT-LT-ST fibroblast viability loss – cell-based, RAS-independent, luminescence, dose response (AID 1935); format: functional; settings: Homo sapiens;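 note: BJ fibroblasts immortalized with TERT plus LT and ST oncogenes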
[9] = DRD fibroblast viability loss – cell-based, non-viral oncogenic, luminescence, dose response (AID 1934); format: functional; settings: Homo sapiens
[10] = biological target: T1, Hexokinase HKDC1 (Homo sapiens, UniProt Q2TB90); assay: inhibition of HKDC1 glucose phosphorylation – biochemical, W721R variant, dose response (AID 504729); format: functional
T1 sequence (Q2TB90 whole entry): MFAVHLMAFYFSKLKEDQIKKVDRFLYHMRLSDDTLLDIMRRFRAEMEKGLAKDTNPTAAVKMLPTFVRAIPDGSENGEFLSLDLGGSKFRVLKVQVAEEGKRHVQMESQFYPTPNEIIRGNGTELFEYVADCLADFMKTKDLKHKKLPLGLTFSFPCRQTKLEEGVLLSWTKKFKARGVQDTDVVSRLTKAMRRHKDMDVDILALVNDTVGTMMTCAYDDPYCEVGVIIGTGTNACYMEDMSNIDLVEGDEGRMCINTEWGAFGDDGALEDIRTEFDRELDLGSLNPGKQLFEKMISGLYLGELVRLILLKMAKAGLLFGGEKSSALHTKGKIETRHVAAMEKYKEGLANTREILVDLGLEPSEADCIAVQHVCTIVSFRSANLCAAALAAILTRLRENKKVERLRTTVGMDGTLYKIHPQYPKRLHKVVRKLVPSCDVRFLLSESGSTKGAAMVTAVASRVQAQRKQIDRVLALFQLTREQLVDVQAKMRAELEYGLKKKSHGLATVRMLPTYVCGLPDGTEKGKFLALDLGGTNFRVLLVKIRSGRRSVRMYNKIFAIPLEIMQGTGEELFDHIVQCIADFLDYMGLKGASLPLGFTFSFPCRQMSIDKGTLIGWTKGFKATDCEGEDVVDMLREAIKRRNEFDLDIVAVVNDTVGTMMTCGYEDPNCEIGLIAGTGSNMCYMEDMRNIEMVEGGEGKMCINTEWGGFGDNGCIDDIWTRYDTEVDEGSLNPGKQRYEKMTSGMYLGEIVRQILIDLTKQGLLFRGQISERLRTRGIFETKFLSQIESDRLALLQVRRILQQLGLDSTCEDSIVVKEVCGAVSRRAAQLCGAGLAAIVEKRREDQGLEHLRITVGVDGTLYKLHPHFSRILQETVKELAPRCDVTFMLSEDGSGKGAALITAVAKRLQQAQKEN

[11] = biological target: T2, Microphthalmia-associated transcription factor (Homo sapiens, UniProt O75030); assay: reducers of TRPM1 reporter luminescence, concentration series – cell-based, SK-MEL-5, cherry-picked, set 3, MITF inhibitor project, dose response (AID 493073); format: functional;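 note: SK-MEL-5 melanoma cells with luciferase driven by the MITF target TRPM1 promoter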
T2 sequence (O75030 whole entry): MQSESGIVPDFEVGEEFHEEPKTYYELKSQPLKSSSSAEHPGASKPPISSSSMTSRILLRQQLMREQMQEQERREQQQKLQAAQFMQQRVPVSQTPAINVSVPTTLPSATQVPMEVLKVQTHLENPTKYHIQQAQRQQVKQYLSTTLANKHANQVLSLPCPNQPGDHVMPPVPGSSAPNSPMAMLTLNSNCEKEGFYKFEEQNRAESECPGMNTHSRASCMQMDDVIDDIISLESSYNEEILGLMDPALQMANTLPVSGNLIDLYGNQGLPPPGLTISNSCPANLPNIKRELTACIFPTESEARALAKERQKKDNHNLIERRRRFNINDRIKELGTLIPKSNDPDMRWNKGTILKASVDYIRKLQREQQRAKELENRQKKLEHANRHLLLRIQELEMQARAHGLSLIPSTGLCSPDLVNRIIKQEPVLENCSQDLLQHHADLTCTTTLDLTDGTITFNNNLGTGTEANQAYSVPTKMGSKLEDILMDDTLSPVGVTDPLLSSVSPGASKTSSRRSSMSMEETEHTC

[12] = biological target: T3, Replicative DNA helicase DnaB (Mycobacterium tuberculosis, UniProt P9WMR3); assay: DnaB intein splicing inhibitors, dose response, biochemical, cell-free fluorescence (AID 449749); format: functional
T3 sequence (P9WMR3 whole entry): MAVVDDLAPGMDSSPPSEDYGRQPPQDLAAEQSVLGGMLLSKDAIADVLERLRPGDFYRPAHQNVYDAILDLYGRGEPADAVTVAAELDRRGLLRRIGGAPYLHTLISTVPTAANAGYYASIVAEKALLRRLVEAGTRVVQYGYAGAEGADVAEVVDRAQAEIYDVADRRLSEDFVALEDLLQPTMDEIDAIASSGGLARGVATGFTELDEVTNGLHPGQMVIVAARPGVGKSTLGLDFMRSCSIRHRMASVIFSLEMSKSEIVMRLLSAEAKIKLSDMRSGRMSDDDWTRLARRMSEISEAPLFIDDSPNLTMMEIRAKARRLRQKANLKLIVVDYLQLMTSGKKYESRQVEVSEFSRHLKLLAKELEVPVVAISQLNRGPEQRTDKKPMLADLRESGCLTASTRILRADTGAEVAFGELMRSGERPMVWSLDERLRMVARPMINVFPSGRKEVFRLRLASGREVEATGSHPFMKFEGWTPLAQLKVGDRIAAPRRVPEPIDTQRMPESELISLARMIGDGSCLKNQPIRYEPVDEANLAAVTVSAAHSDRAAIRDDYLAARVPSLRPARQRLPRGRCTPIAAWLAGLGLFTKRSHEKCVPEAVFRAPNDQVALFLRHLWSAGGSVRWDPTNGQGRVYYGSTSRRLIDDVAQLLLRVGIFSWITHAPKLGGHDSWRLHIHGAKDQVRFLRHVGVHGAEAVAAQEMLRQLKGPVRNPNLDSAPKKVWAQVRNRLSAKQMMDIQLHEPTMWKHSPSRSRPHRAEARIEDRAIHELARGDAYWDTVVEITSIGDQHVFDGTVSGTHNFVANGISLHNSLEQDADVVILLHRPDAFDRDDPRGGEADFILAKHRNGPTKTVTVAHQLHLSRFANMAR

[13] = biological target: T4, Protein RecA (Mycobacterium tuberculosis, UniProt P9WHJ3); assay: Fluorescence Cell-Free Homogeneous Dose Retest to Identify Inhibitors of RecA-Intein Splicing Activity. [Related pubchem assays (depositor defined):AID2097, AID2223, AID489010, AID492950]; format: functional
T4 sequence (P9WHJ3 whole entry): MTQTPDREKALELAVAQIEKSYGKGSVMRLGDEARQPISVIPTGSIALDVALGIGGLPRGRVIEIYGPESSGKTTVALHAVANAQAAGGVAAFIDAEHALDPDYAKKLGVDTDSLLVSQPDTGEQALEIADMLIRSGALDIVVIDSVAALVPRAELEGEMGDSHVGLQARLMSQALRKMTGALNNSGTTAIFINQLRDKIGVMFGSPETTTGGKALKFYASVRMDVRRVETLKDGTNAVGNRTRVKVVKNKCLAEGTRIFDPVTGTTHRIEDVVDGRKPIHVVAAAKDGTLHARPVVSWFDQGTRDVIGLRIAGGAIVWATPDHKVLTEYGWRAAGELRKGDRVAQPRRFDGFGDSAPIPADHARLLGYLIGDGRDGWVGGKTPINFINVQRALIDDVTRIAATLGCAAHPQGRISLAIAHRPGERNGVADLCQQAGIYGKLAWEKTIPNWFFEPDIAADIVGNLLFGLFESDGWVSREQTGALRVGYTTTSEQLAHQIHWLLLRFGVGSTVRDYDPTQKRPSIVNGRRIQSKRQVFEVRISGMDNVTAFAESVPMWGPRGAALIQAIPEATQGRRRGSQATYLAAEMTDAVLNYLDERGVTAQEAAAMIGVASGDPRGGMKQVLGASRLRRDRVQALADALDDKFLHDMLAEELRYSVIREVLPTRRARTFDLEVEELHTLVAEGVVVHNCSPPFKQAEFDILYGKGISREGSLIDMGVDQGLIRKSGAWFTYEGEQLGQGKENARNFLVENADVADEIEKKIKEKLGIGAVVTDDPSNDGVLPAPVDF

[14] = biological target: T5, Kappa-type opioid receptor (Homo sapiens, UniProt P41145); format: functional
[15] = biological target: Beta-galactosidase (Escherichia coli, UniProt Q8VNN2); format: functional
[16] = biological target: T5, Kappa-type opioid receptor; format: functional; remark: listed apart in the source
[17] = system: P388/ADR; assay: cells; format: functional; settings: Mus musculus
[18] = system: SN12K1; assay: cells; format: functional; settings: Homo sapiens
[19] = system: P388; assay: cells; format: functional; settings: Mus musculus
[20] = biological target: Cytochrome P450 3A4 (Homo sapiens, UniProt P08684); settings: Potency;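 note: confirmatory qHTS run detecting inhibitors and substrates of CYP3A4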
Sequence of Cytochrome P450 3A4 (P08684 whole entry): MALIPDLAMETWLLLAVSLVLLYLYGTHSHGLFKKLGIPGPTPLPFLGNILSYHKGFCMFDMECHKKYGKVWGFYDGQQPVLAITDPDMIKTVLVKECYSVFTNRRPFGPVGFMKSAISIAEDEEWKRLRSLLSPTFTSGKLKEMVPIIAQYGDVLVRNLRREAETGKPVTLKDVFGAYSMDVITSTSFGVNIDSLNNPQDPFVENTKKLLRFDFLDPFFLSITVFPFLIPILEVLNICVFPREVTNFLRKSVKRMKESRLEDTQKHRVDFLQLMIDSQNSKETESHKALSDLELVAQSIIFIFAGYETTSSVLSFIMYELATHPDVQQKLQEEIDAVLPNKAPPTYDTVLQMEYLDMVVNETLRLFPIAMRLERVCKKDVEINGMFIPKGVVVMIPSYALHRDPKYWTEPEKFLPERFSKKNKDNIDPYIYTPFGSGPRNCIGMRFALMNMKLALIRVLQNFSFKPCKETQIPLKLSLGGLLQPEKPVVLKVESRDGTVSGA

T5 sequence (P41145 whole entry): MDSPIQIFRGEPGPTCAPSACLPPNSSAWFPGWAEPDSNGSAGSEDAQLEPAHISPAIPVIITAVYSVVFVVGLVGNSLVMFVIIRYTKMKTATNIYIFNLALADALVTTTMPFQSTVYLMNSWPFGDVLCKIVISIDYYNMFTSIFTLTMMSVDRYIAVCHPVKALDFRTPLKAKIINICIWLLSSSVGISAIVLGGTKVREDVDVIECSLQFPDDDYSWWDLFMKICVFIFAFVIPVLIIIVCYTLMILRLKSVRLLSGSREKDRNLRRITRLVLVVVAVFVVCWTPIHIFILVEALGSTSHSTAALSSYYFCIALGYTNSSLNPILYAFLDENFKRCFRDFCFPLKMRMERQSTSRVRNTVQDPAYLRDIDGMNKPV
Sequence of Beta-galactosidase (Q8VNN2 whole entry): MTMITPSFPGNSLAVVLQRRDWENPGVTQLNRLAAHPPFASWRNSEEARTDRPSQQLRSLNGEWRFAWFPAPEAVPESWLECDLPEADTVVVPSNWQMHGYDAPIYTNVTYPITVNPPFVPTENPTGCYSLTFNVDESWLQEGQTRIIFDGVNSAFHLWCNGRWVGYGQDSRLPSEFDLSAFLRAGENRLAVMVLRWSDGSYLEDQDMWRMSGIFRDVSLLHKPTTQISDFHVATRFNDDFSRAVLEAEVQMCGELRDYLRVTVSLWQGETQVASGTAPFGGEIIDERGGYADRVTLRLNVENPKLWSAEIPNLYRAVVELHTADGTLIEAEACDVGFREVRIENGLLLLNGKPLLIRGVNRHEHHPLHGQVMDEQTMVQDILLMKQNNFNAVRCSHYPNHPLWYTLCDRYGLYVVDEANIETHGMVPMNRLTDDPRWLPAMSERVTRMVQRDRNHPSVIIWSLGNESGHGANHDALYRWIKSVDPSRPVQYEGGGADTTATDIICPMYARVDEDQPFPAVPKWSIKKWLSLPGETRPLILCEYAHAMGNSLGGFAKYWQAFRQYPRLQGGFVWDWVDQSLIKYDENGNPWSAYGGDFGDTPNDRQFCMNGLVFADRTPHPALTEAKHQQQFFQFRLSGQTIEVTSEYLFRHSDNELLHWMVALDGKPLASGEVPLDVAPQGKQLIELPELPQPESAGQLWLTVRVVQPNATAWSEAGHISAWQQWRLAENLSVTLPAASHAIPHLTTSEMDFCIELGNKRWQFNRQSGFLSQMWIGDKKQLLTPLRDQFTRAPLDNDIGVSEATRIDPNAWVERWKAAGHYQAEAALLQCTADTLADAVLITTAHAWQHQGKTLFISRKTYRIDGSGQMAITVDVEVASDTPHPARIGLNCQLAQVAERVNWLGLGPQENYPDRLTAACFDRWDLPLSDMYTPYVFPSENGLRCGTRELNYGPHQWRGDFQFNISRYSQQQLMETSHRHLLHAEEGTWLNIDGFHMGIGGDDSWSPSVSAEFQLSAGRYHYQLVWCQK

Row | Structure (SMILES) | EC50 [1] | EC50 [2] | EC50 [3] | EC50 [4] | EC50 [5] | EC50 [6] | EC50 [7] | EC50 [8] | EC50 [9] | IC50 [10] | AC50 [11] | AC50 [12] | EC50 [13] | IC50 [14] | EC50 [15] | IC50 [16] [µM] | GI50 [17] | GI50 [18] | GI50 [19] | AC50 [20]
1 | CCOc1ccc(-n2c(C)cc(C(=O)CCl)c2C)cc1 | 4.21 µM (inconclusive) | > 120 µM (not active) | 4.29 µM (active) | 15 µM (active) | > 120 µM (not active) | 4.84 µM (active) | > 38 µM (not active) | 9.67 µM (inconclusive) | 9.56 µM (active) | 47.7 µM (inactive) | 4.59 µM (active) | 8.96 µM (active) | 11.7 µM (active) |  |  |  |  |  |  | 
2 | Oc1ccc2c3c1O[C@H]1c4oc5ccccc5c4C[C@@]4(O)[C@@H](C2)N(CC2CC2)CC[C@]314 |  |  |  |  |  |  |  |  |  |  |  |  |  | 0.699 µM (active) | > 31.5 µM (inactive) | < 0.5 |  |  |  | 
3 | COC1=CC(=O)C=C(OC)C1=O [2,6-DIMETHOXYQUINONE] |  |  |  |  |  |  |  |  |  | 2.49 µM (active) |  |  |  |  |  |  | 0.457 µM (active) | 7.38 µM (inactive) | 0.401 µM (active) | 25.1 µM (inconclusive)
